Values after ≈ are worked out from the molar mass of the structure shown.
Tests used:
mouse leukemia L1210 = test: Anti-tumor activity: life prolonging effect in mice transplanted intraperitoneally with mouse leukemia L1210 (T/C%); assay type: in vivo; conditions: for Anti-tumor activity (T/C%): i.p. day 1, 5 and 9
Description: 5×10^5 cells of mouse leukemia L1210 were transplanted intraperitoneally to a group of six female CDP1 mice (7 weeks old, body weight 17-19 g). A test substance was administered intraperitoneally on day 1, 5 and 9, and its life prolonging effect was observed. In a case of the administration of a test substance as an acid addition salt, it was dissolved in purified water. The total administration amount was 1.56-400 mg/kg. The anti-tumor activity was expressed by the value (T/C%) in which the ratio of the mean survival days of a drug administered group (T) to the mean survival days of a not administered group (C) is multiplied by 100.

[1] = Solubility of each hydrochloride in purified water; assay type: physicochemical
Description: A corresponding camptothecin-21-(2-dimethylamino) ethylamide derivative (100-200 mg) was added with an aqueous 0.1 N HCl solution (1.05 eq.) and dissolved, if necessary, further by adding purified water. The solution was filtered using MILLEX-GV ([…] Filter Unit), and the filtrate was lyophilized to give the desired hydrochloride.
Table 1: Solubility of each hydrochloride in purified water

[2] = Stability test in water at each pH (phosphate buffer, HPLC); assay type: physicochemical; conditions: for Amount of the compound in test solution: room temperature (about 26° C.)
Description: 1) Preparation of calibration curve:
1.05 mg of the compound 1 and 1.10 mg of the compound A (Note) were measured, dissolved in acetonitrile 10 ml to give a standard solution. 20 μl of the standard solution was tested by HPLC method (procedure condition 1). The peak area of the compound 1 and the compound A (Note), which is obtained from the chromatograph of the standard solution is measured by an automatic integration method, and the obtained area is plotted against an amount of the compound 1 and the compound A (2.1 μg and 2.2 μg) by 20 μl to prepare a calibration curve.
[HPLC method, procedure condition 1]
Column: Inertsil ODS-3 (5-250), 40 deg.
Mobile phase: 0.01 M potassium dihydrogenphosphate-acetonitrile (3:1)
Detection: UV absorptiometer (254 nm)
About 1 mg (×3) of the compound 1 were measured, dissolved adding a phosphate buffer 10 ml of pH 10.0, 7.0 or 5.4, stirred at room temperature (about 26° C.) to make a test solution. As to each 20 μl of the test solution at the time of dissolution, 3 hr later and 24 hr later, the tests were carried out by the HPLC method (procedure condition 1). The amounts of the compound 1 were measured from the obtained area. The amounts of the compound A in each pH were measured.
The amounts (μg/ml) of the compound 1 and the compound A at the time of dissolution, 3 hr later and 24 hr later in each pH are shown in Table 7.

What does the source list for `CCc1c2c(nc3ccccc13)-c1cc([C@@](O)(CC)C(=O)NCCN(C)C)c(COC(=O)NC)c(=O)n1C2` [Compound 1, 7-Ethyl-17-methylcarbamoyloxycamptothecin-21-(2-dimethylamino)ethylamide]?
Anti-tumor activity (T/C%) (mouse leukemia L1210; Table 2, total dose 3.13 mg/kg): 97%; Anti-tumor activity (T/C%) (mouse leukemia L1210; Table 2, total dose 6.25 mg/kg): 97%; Anti-tumor activity (T/C%) (mouse leukemia L1210; Table 2, total dose 12.5 mg/kg): 95%; Anti-tumor activity (T/C%) (mouse leukemia L1210; Table 2, total dose 25 mg/kg): 97%; Anti-tumor activity (T/C%) (mouse leukemia L1210; Table 2, total dose 50 mg/kg): 97%; Anti-tumor activity (T/C%) (mouse leukemia L1210; Table 2, total dose 100 mg/kg): 139%; Anti-tumor activity (T/C%) (mouse leukemia L1210; Table 2, total dose 200 mg/kg): 145%; solubility [1]: ≥ 50 mg/mL; Amount of the compound in test solution ([2]; pH 5.4, 3 hr later): 118 µg/mL; Amount of the compound in test solution ([2]; pH 5.4, 24 hr later): 118 µg/mL; Amount of the compound in test solution ([2]; pH 5.4, at the time of dissolution): 118 µg/mL; Amount of the compound in test solution ([2]; pH 7.0, 3 hr later): 105 µg/mL; Amount of the compound in test solution ([2]; pH 7.0, 24 hr later): 105 µg/mL; Amount of the compound in test solution ([2]; pH 7.0, at the time of dissolution): 105 µg/mL; Stability in aqueous solution (in words) ([2]; pH 7.0 and 5.4, room temperature): stably present at room temperature; Amount of the compound in test solution ([2]; pH 10.0, 3 hr later): 106 µg/mL; Amount of the compound in test solution ([2]; pH 10.0, 24 hr later): 97 µg/mL; Amount of the compound in test solution ([2]; pH 10.0, at the time of dissolution): 109 µg/mL; remaining at 24 h ([2]; phosphate buffer, pH 10.0, after 24 hr, read-out: remained in the aqueous solution): 89%

With `CCc1c2c(nc3ccccc13)-c1cc([C@@](O)(CC)C(=O)NCCN(C)C)c(COC(=O)Nc3ccc(F)cc3)c(=O)n1C2` [Compound 10, 7-Ethyl-17-(4-fluorophenylcarbamoyloxy)-camptothecin-21-(2-dimethylamino)ethylamide] as the molecule, how does the “Anti-tumor activity (T/C%)” value (mouse leukemia L1210; Table 4, total dose 3.13 mg/kg) read?
The value was 115%.

What about the “Anti-tumor activity (T/C%)” value (mouse leukemia L1210; Table 4, total dose 6.25 mg/kg) of the same molecule?
The value was 118%.

What about the “Anti-tumor activity (T/C%)” value (mouse leukemia L1210; Table 4, total dose 12.5 mg/kg) of the same molecule?
The value was 123%.

What about the “Anti-tumor activity (T/C%)” value (mouse leukemia L1210; Table 4, total dose 25 mg/kg) of the same molecule?
Its value is 136%.

And the “Anti-tumor activity (T/C%)” value (mouse leukemia L1210; Table 4, total dose 50 mg/kg)?
The value was 174%.

And the “Anti-tumor activity (T/C%)” value (mouse leukemia L1210; Table 4, total dose 100 mg/kg)?
Its value is 221%.

And the “Anti-tumor activity (T/C%)” value (mouse leukemia L1210; Table 4, total dose 200 mg/kg)?
Its value is 310%.

And the solubility [1]?
Its solubility is about 7 mg/mL (≈ 11.6 mM).

What does the source list for `CCc1c2c(nc3ccccc13)-c1cc([C@@](O)(CC)C(=O)NCCN(C)C)c(COC(=O)N(C)C)c(=O)n1C2` [Compound 14, 17-Dimethylcarbamoyloxy-7-ethylcamptothecin-21-(2-dimethylamino)ethylamide]?
Anti-tumor activity (T/C%) (mouse leukemia L1210; Table 4, total dose 3.13 mg/kg): 118%; Anti-tumor activity (T/C%) (mouse leukemia L1210; Table 4, total dose 6.25 mg/kg): 121%; Anti-tumor activity (T/C%) (mouse leukemia L1210; Table 4, total dose 12.5 mg/kg): 126%; Anti-tumor activity (T/C%) (mouse leukemia L1210; Table 4, total dose 25 mg/kg): 136%; Anti-tumor activity (T/C%) (mouse leukemia L1210; Table 4, total dose 50 mg/kg): 149%; Anti-tumor activity (T/C%) (mouse leukemia L1210; Table 4, total dose 100 mg/kg): 218%; Anti-tumor activity: fraction in parentheses after T/C% (meaning not given) (mouse leukemia L1210; Table 4, total dose 200 mg/kg, group of six mice): 4/6; Anti-tumor activity (T/C%) (mouse leukemia L1210; Table 4, total dose 200 mg/kg): 523%; solubility [1]: ~50 mg/mL (≈ 93.3 mM)

From patent US6310210A, “Camptothecin derivatives” (Kabushiki Kaisha Yakult Honsha, priority 1997, dated 2001)
